Results on seven molecules are retold here after publication PMC7039932, “Development of Relaxin-3 Agonists and Antagonists Based on Grafted Disulfide-Stabilized Scaffolds” (Frontiers in Chemistry, 2020).

One series is described as follows: In vitro serum stability. It counts as in vitro ADME, human. To be noted: for half-life at 2.5 µg/mL: human male pooled serum, 570 μl spiked with 30 μl peptide stock (0.05 μg/μl in H2O), quenched with 0.1 M ammonium acetate pH 3, SPE, LC-MS MRM, one phase decay, at least three replicates, read-out: Half-life in serum (T1/2) (converted). Here is the method: The in vitro serum stability was determined by peptide spiking, as previously described (Hossain et al., [2015]). Briefly, 570 μl human male pooled serum was spiked with 30 μl peptide stock solution (0.05 μg/μl in H2O). 100 μl samples were taken out at different time points and quenched with 900 μl ammonium acetate (0.1 M, pH 3). Samples were left on ice for 30 min before being extracted using solid phase extraction cartridges (Oasis HLB 3cc, Waters). Eluted samples were then lyophilized and reconstituted in 1% formic acid. The amount of intact peptide is reported relative to the amount of peptide available at timepoint 0 hr. Quantification was carried out using multiple reaction monitoring on a triple-quad LC-MS (API2000, AB Sciex) and the data analyzed using one phase decay in Prism 7.

Series [1] deals with T1, RXFP3 (Homo sapiens, UniProt Q9NSD7).
T1 construct: expressed in transfected cells; host or cells: CHO-K1 cells stably expressing RXFP3
T1 sequence (Q9NSD7 1-469): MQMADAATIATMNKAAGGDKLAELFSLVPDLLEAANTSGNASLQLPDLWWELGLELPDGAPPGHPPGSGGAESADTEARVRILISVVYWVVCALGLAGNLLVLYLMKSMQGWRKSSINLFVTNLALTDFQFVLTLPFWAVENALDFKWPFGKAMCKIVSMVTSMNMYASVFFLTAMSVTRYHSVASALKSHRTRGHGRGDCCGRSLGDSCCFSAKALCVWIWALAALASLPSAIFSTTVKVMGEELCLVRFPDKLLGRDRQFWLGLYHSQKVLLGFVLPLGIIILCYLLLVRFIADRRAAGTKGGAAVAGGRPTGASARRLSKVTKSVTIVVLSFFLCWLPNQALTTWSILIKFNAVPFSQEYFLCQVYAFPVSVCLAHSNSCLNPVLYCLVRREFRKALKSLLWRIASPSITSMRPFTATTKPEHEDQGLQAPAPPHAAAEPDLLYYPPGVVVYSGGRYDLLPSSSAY
The experiment in a line: Inhibition of forskolin-induced cAMP accumulation, pCRE-β-galactosidase reporter, CHO-K1 cells stably expressing RXFP3. It is filed as cell-based. To be noted: CHO-K1-RXFP3 cells with pCRE-β-galactosidase reporter; 5 μM forskolin; mean ± SEM, number in parentheses = independent experiments in triplicate. Here is the method:
The affinity and activity of the grafted peptides were determined as previously described (Haugaard-Kedström et al., [2015]). Briefly, for competition binding studies CHO-K1 cells stably expressing RXFP3 were incubated with 5 nM Eu-DTPA-R3 B1-22R and increasing concentrations of peptide analogs. Unlabeled R3 B1-22R was used as reference compound. The europium was detected by the addition of enhancement solution and fluorescence recorded using an excitation of 340 nm and emission reading at 614 nm. For agonists the ability of analogs to inhibit cAMP accumulation were tested in CHO-K1 cells stably expressing RXFP3 transfected with a pCRE-β-galactosidase reporter plasmid. Cells were stimulated with 5 μM forskolin and incubated with increasing concentrations of relaxin-3 analogs as previously described (Shabanpoor et al., [2012]). […] Data are expressed as mean ± SEM and analyzed using Prism 8 (GraphPad).
The binding affinity of the grafted peptides were determined using CHO cells stably expressing RXFP3 by measuring increasing concentrations of the grafted peptides' ability to compete for the binding site with europium labeled R3 B1-22R (Haugaard-Kedström et al., [2015]). Activation was measured by assessing the ability of the analogs to inhibit cAMP accumulation induced by forskolin in a reporter assay, as RXFP3 couples to an inhibitory G-protein.
Background: Cyclic AMP is a second messenger, typically raised through Gs and lowered through Gi signalling.

Series [2] addresses T2, RXFP3 (Homo sapiens, UniProt Q9NSD7).
T2 chain: T1 sequence (Q9NSD7 1-469)
The experiment in a line: competition binding with Eu-R3 B1-22R on CHO-K1 cells.

Where a SMILES comes first, the peptide text is derived from it. Bridges are numbered along the chain shown (N, C = ends). Where no end group is shown, it is not given here.

A word on the Ki: it is a dissociation constant, usually derived from enzyme kinetics or from competition with a known ligand. Read a high Ki as weaker binding.

Turning to `CC[C@H](C)[C@H](NC(=O)[C@H](Cc1ccccc1)NC(=O)[C@H](CCC(=O)O)NC(=O)[C@H](CCCNC(=N)N)NC(=O)CNC(=O)[C@H](CS)NC(=O)[C@H](CC(C)C)NC(=O)[C@H](CCCNC(=N)N)NC(=O)[C@@H](NC(=O)CNC(=O)[C@H](Cc1ccc(O)cc1)NC(=O)[C@@H]1CCCN1C(=O)[C@H](C)NC(=O)[C@H](C)NC(=O)[C@@H](N)CCCNC(=N)N)C(C)C)C(=O)N[C@@H](CCCNC(=N)N)C(=O)N[C@@H](C)C(=O)N[C@H](C(=O)N[C@H](C(=O)N[C@@H](Cc1ccccc1)C(=O)N[C@H](C(=O)N[C@@H](CS)C(=O)NCC(=O)NCC(=O)N[C@@H](CO)C(=O)N[C@@H](CCCNC(=N)N)C(=O)N[C@@H](Cc1c[nH]c2ccccc12)C(=O)O)[C@@H](C)O)[C@@H](C)CC)C(C)C` [Analog 2, reference compound], the half-life at 2.5 µg/mL in the series “In vitro serum stability” is 0.0517 h.
Regarding `CC[C@H](C)[C@@H]1NC(=O)[C@H](C)NC(=O)[C@@H]2CSSC[C@H](N)C(=O)N[C@@H](CC(N)=O)C(=O)N[C@@H](CSSC[C@@H](C(=O)N[C@H](C(=O)N[C@H](C(=O)N[C@@H](Cc3ccccc3)C(=O)N[C@H](C(=O)N[C@@H](CO)C(=O)NCC(=O)NCC(=O)N[C@@H](CO)C(=O)N[C@@H](CCCNC(=N)N)C(=O)N[C@@H](Cc3c[nH]c4ccccc34)C(=O)O)[C@@H](C)O)[C@@H](C)CC)C(C)C)NC(=O)[C@H](CCCNC(=N)N)NC1=O)C(=O)N[C@@H](CCCCN)C(=O)N[C@@H](C)C(=O)N1CCC[C@H]1C(=O)N[C@@H](CCC(=O)O)C(=O)N[C@@H]([C@@H](C)O)C(=O)N[C@@H](C)C(=O)N[C@@H](CCCNC(=N)N)C(=O)N2` [Analog 3] (H-CNCKAPETARCAIRCVIFTSGGSRW-OH; disulfide 1-11, 3-15), in the series “In vitro serum stability”, the half-life at 2.5 µg/mL is 12.8 h. Besides, in the series “In vitro serum stability” (human serum T1/2 of grafted peptide relative to linear R3 B1-27 or R3 B1-22R), the “Fold improvement in serum stability versus linear counterpart” value was 250 fold.
As to `CC[C@H](C)[C@@H]1NC(=O)[C@H](C)NC(=O)[C@@H]2CSSC[C@H](N)C(=O)N[C@@H](CC(N)=O)C(=O)N[C@@H](CSSC[C@@H](C(=O)N[C@H](C(=O)N[C@H](C(=O)N[C@@H](Cc3ccccc3)C(=O)N[C@H](C(=O)N[C@@H](CO)C(=O)N[C@@H](CCCNC(=N)N)C(N)=O)[C@@H](C)O)[C@@H](C)CC)C(C)C)NC(=O)[C@H](CCCNC(=N)N)NC1=O)C(=O)N[C@@H](CCCCN)C(=O)N[C@@H](C)C(=O)N1CCC[C@H]1C(=O)N[C@@H](CCC(=O)O)C(=O)N[C@@H]([C@@H](C)O)C(=O)N[C@@H](C)C(=O)N[C@@H](CCCNC(=N)N)C(=O)N2` [Analog 9] (H-CNCKAPETARCAIRCVIFTSR-NH2; disulfide 1-11, 3-15), on RXFP3 [1], the “cAMP activity pEC50 ± SEM” value is “No activity”. Also, in the series “In vitro serum stability”, the half-life at 2.5 µg/mL was 6.6 h.
On to “RAAPYGVRLSGREFIRAVIFTSR-NH2 [Analog 8, reference compound]”, for which the half-life at 2.5 µg/mL in “In vitro serum stability” is 0.0667 h.
Take RAAPYGVRLSGREFIRAVIFTSR-NH2 [Analog 8]: the “cAMP activity pEC50 ± SEM” value on RXFP3 [1] is listed as “No activity”.

B1: relaxin-3 (R3 acid, analog 1) (protein)
chain 1: RAAPYGVRLCGREFIRAVIFTCGGSRW
chain 2: DVLAGLSSSCCKWGCSKSEISSLC
Take B1: the affinity with RXFP3 [2], expressed as Ki, was 20.4 nM. That is a double-digit nanomolar value.

B2: relaxin-3 B-chain (R3 B1-27, analog 2) B-chain 1-27 (peptide)
chain: MARYMLLLLLAVWVLTGELWPGAEARA
B2 displayed a Ki with RXFP3 [2] of 1230 nM.
